From paper PMC9687990, “Identification, Characterization, and Expression of a β-Galactosidase from Arion Species (Mollusca)” (Biomolecules, 2022)
Each block holds one molecule with its values, some of them ahead of it.

Tests used:
[1] = biological target: T1, recombinant β-galactosidase from A. vulgaris (β-gal) (Arion vulgaris, UniProt A0A0B7AQJ9); assay: inhibition of pNP-β-Gal hydrolysis, colorimetric […] nm; type: biochemical; conditions: pNP-β-Gal substrate, pH 4.5, 37 °C, 2 h; 12 mM galactose; product inhibition
T1 construct: gene ORF136304
T1 sequence (A0A0B7AQJ9 1-661): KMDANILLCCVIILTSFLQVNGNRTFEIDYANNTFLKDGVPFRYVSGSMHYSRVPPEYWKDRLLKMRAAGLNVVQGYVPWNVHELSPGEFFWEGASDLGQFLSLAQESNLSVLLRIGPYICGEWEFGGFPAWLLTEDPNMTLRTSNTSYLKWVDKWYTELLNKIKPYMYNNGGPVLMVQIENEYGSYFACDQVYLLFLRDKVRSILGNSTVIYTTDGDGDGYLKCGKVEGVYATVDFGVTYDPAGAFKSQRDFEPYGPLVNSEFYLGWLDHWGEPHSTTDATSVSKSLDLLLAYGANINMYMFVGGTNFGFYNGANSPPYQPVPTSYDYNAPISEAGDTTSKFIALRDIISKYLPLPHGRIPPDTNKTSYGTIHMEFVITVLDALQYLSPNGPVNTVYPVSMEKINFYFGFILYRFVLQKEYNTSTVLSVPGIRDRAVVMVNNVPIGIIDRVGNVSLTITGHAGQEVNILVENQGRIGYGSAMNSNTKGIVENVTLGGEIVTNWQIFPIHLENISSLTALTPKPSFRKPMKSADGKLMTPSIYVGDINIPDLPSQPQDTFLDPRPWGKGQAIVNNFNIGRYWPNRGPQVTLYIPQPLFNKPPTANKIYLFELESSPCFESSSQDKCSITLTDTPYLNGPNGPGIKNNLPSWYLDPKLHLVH

[2] = tested on: T2, native β-galactosidase from A. lusitanicus; assay: colorimetric p-nitrophenol release, […] nm; type: biochemical, Arion vulgaris; conditions: pH 4.5 (Na citrate), 37 °C, 2 h; 0.2-12.5 mM substrate
T2 construct: gene β-Gal

purified protein = substrate: O=[N+]([O-])c1ccc(O[C@@H]2O[C@H](CO)[C@H](O)[C@H](O)[C@H]2O)cc1; assay: purified protein; conditions: pH 4.5 (Na citrate), 37 °C, 2 h, 0.2-12.5 mM substrate

% reduction of activity at 12 mM [1]: ~ 40%
Molecule: OC[C@H]1OC(O)[C@H](O)[C@@H](O)[C@H]1O (stereo partly drawn) [galactose]

Km [2]: 8.3 mM
Molecule: O=[N+]([O-])c1ccc(O[C@@H]2O[C@H](CO)[C@H](O)[C@H](O)[C@H]2O)cc1 [pNP-β-Gal]

B1: recombinant β-galactosidase from A. vulgaris (β-gal) (Arion vulgaris) (protein)
chain: KMDANILLCCVIILTSFLQVNGNRTFEIDYANNTFLKDGVPFRYVSGSMHYSRVPPEYWKDRLLKMRAAGLNVVQGYVPWNVHELSPGEFFWEGASDLGQFLSLAQESNLSVLLRIGPYICGEWEFGGFPAWLLTEDPNMTLRTSNTSYLKWVDKWYTELLNKIKPYMYNNGGPVLMVQIENEYGSYFACDQVYLLFLRDKVRSILGNSTVIYTTDGDGDGYLKCGKVEGVYATVDFGVTYDPAGAFKSQRDFEPYGPLVNSEFYLGWLDHWGEPHSTTDATSVSKSLDLLLAYGANINMYMFVGGTNFGFYNGANSPPYQPVPTSYDYNAPISEAGDTTSKFIALRDIISKYLPLPHGRIPPDTNKTSYGTIHMEFVITVLDALQYLSPNGPVNTVYPVSMEKINFYFGFILYRFVLQKEYNTSTVLSVPGIRDRAVVMVNNVPIGIIDRVGNVSLTITGHAGQEVNILVENQGRIGYGSAMNSNTKGIVENVTLGGEIVTNWQIFPIHLENISSLTALTPKPSFRKPMKSADGKLMTPSIYVGDINIPDLPSQPQDTFLDPRPWGKGQAIVNNFNIGRYWPNRGPQVTLYIPQPLFNKPPTANKIYLFELESSPCFESSSQDKCSITLTDTPYLNGPNGPGIKNNLPSWYLDPKLHLVH
Km (purified protein): 3.2 mM
